Data from patent publication US9339454B2, “Skin whitening agent” (Kao Corporation, priority 2011, dated 2016).

Target: T1, dopa oxidase (Homo sapiens, UniProt P14679)
T1 sequence (P14679 19-529): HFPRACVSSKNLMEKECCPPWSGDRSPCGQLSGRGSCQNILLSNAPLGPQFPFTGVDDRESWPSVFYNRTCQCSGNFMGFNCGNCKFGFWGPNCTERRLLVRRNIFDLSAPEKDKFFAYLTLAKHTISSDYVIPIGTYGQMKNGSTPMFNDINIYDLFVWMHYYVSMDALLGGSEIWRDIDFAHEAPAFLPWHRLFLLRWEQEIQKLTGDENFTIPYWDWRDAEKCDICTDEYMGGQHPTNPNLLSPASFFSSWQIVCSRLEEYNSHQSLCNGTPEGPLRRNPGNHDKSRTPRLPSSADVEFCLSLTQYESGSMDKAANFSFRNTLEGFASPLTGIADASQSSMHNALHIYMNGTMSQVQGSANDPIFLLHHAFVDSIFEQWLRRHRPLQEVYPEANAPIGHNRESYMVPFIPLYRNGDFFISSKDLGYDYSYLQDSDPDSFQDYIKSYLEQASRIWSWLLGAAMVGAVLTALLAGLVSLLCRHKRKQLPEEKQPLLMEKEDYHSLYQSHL
Assay: Dopa oxidase activity in cultured melanocytes (MBTH method)
Format: cell-based
Conditions: for Dopa oxidase activity of fractions, result in words: activity-guided fractionation of haguro-so 50% ethanol extract, same procedure as Example 1; for inhibition at 0.1 µM: evaluation concentration 0.1 μM; for inhibition at 0.1 µM / inhibition at 0.5 µM / inhibition at 1 µM: relative to control, read-out: Dopa oxidase inhibitory rate (%); for inhibition at 0.5 µM: evaluation concentration 0.5 μM; for inhibition at 1 µM: evaluation concentration 1.0 μM
Procedure: Normal human neonatal epidermal melanocytes (NHEMs; KURABO INDUSTRIES, LTD.) were seeded in a 96-well plates at a density of 1×10^4 cells/well ([…]) and cultured at 37° C. under a 5% CO2. Cells were maintained in Medium 254 (KURABO INDUSTRIES, LTD.) containing growth supplement (HMGS) without PMA.
After 3-day culture, the haguro-so extracts (water extract, 50% ethanol extract, or 95% ethanol extract) prepared in accordance with the above Production Examples 1 to 3 and having an evaporation residue of 1.0 w/v % were each added to give a final concentration shown in Table 1 together with Endothelin-1 (ET-1), SCF, α-MSH, Histamine, and PGE2 adjusted to have a final concentration of 1 nM in each medium, and cultured under the conditions of 37° C. and a 5% CO2 for 3 days. For a control, an ethanol aqueous solution (10%, 50%, or 95%) of the equal amount was added.
After completion of culture, Alamar Blue (Invitrogen) reagent was added in an amount of 20 μL/well and incubated for 2 to 3 hours, followed by measuring the fluorescence intensity of the medium to measure the cellular respiration activity. […] The dopa oxidase activity was measured by the following method with reference to the MBTH method (Winder A. et al., 1991, Eur. J. Biochem. 198: 317-326).
To each of the wells containing the solubilized cell solution, 80 μL of the above assay buffer, 60 μL of 20.7 mM MBTH (3-methyl-2-benzothiazolinon hydrazone) solution, and 40 μL of 5 mM L-dopa(L-dihydroxyphenylalanine) solution as a substrate were added, reacted at 37° C. for 30 to 60 minutes, thereby measuring the color reaction thereof at 490 nm absorbance (N=3). The measured values were shown in the relative value to the result of the control.
Normal human neonatal epidermal melanocytes (NHEMs; KURABO INDUSTRIES, LTD.) were inoculated in a 96-well plate in a cell density of 1×10^4 cells/well (100 μL/well) and cultured at 37° C. under a 5% CO2. The medium used was Medium 254 containing PMA(−) growth supplement (HMGS).
After 3-day culture, each of the compounds shown in Table 4 was added to give final concentrations shown in the same Table, together with Endothelin-1 (ET-1), SCF, α-MSH, Histamine, and PGE2 adjusted to give a final concentration of 1 nM in each medium, and cultured under the conditions of 37° C. and a 5% CO2 for 3 days. For a control, a DMSO solution of the equal amount was added.
After completion of the culture, Alamar Blue (Invitrogen) reagent was added in an amount of 20 μL/well and incubated for 2 to 3 hours, followed by measuring the fluorescence intensity of the medium to measure the cellular respiration activity. […] The dopa oxidase activity was measured by the following method with reference to the MBTH method (Winder A. et al., Eur. J. Biochem., 1991, 198: 317-326).
To each of the wells containing the solubilized cell solution, 80 μL of the above assay buffer, 60 μL of 20.7 mM MBTH (3-methyl-2-benzothiazolinon hydrazone) solution and 40 μL of 5 mM L-dopa (L-dihydroxyphenylalanine) solution as a substrate were added, reacted at 37° C. for 30 to 60 minutes, thereby measuring the color reaction thereof at 490 nm absorbance (N=3).

Structure (SMILES)	Dopa oxidase activity of fractions, result in words	inhibition at 0.1 µM (NHEMs, 3 days) [%]	inhibition at 0.5 µM (NHEMs, 3 days) [%]	Dopa oxidase inhibitory rate (%) (evaluation concentration printed 0.1 μM as third concentration after 0.1 and 0.5, NHEMs, 3 days)	inhibition at 1 µM (NHEMs, 3 days) [%]
COc1cc2c(OC)c3c(c(-c4ccc5c(c4)OCO5)c2cc1OC)C(=O)OC3 [Compound 1, Justicidin A]	found	20	50	55	
COc1cc2cc3c(c(-c4ccc5c(c4)OCO5)c2cc1OC)C(=O)OC3 [Compound 2, Justicidin B]	found	10	30		50
COc1cc2c(O[C@H]3OCC(O)(CO)C3O)c3c(c(-c4ccc5c(c4)OCO5)c2cc1OC)C(=O)OC3 (stereo partly shown) [Compound 3, Tuberculatin]	found	45	50		70
COc1cc2c(O)c3c(c(-c4ccc5c(c4)OCO5)c2cc1OC)C(=O)OC3 [Compound 4, Diphyllin]			20		40
CCOc1c2c(c(-c3ccc4c(c3)OCO4)c3cc(OC)c(OC)cc13)C(=O)OC2 [Compound 5, 4-Ethoxy-6,7-dimethoxy-9-(1,3-benzodioxol-5-yl)naphtho[2,3-c]furan-1(3H)-one]		40	60		
COc1cc2c(OC(C)=O)c3c(c(-c4ccc5c(c4)OCO5)c2cc1OC)C(=O)OC3 [Compound 6, 4-acetoxy-6,7-dimethoxy-9-(1,3-benzodioxol-5-yl)naphtho[2,3-c]furan-1(3H)-one]			40		50
COc1c2c(c(-c3ccc4c(c3)OCO4)c3cc4c(cc13)OCO4)C(=O)OC2 [Compound 7, Justicidin F]		20			
